In patent publication US11400038B2, “Synergistic antioxidant compositions” (RODAN & FIELDS, LLC, priority 2019, dated 2022):

What was measured:
[1] = test system: Adult human fibroblasts; experiment: Phototoxicity (PHTX): cell viability pre- and post-UVA irradiation by MTT assay (Test Method B); type: cell-based; conditions: for cell metabolism versus solvent control, in words: UV-irradiation assay, individual antioxidants; for PHTX Results: phototoxicity: individual antioxidant
Description: The cell viability was measured by determining the cells metabolic activity with a MTT assay according to Test Method B, the results are presented in Table 5. An MTT assay is a colorimetric assay for assessing cell metabolic activity.
Adult human fibroblasts were grown to exponential stage in a 96-well plate in DMEM and 10% FBS in humidified atmosphere, 37° C. in 5% CO2. Prior to irradiation, half of cell culture medium was replaced with PBS, treated with 0.1% test material (diluted in double distilled water), and incubated for an additional 1 hour 45 minutes. Following incubation, half of the plate was irradiated with UVA lamp UVA-28T at 5 mW/cm2 for 12 minutes, and the other half remained covered with aluminum foil. Following irradiation, PBS with test materials was replaced by fresh cell culture medium and plate was incubated for an additional 24 hours. Cell viability was then analyzed via MTT assay to quantify metabolic activity.

[2] = test system: UVA-induced Reactive Oxygen Species in Human Dermal Fibroblasts; experiment: DCFH reactive oxygen species quantification in UVA-irradiated fibroblasts (Test Method C); type: cell-based; conditions: individual antioxidant, + pro-oxidant
Description: Compositions of Ex1-Ex8 have been tested for reactive oxygen species quantification in UVA-irradiated human dermal fibroblasts. The quantification result is expressed as a percentage of the water control and determined by the Test Method C and resented in Table 6.
Adult human fibroblasts were grown in a 96 well plate in DMEM+5% FBS. At exponential growth stage, medium was replaced with PBS and cells were loaded with 10 μM DCFH-DA (2′-7′-Dichlorofluorescin diacetate). Cells were incubated for 15 minutes at 37° C., rinsed, and incubated with test materials at 1 mg/ml (0.1% w/w) for an additional 20 minutes. Following incubation, plate was irradiated at 5 mW/cm2 for 10 minutes. Measurements of DCF-originated fluorescence were taken before and after irradiation as, in the presence of free radicals, DCFH is oxidized to highly fluorescent DCF, which can be detected in living cells at ex/em 488/530 nm. Total insoluble proteins were quantified to determine effect of test materials on cell number and to standardize ROS signal to cell number using the following equation: [ΔROS signal (t10 min−t0)]\[cell number (background−corrected)]. Water was used as a negative control.

Question: How did the “cell metabolism versus solvent control, in words” value [1] turn out when `O=C(/C=C/c1ccc(O)c(O)c1)O[C@H](Cc1ccc(O)c(O)c1)C(=O)O` [Rosmarinic acid, (2R)-3-(3,4-dihydroxyphenyl)-2-{[(2E)-3-(3,4-dihydroxyphenyl)prop-2-enoyl]oxy}propanoic acid] was run?
Answer: lower cell metabolism than solvent control

Question: And the “PHTX Results: phototoxicity” value [1]?
Answer: not phototoxic

Question: And the “DCFH Results (intracellular antioxidant): radical activity” value [2]?
Answer: −52% radical

Question: `C[C@@H]1O[C@@H](OC[C@H]2O[C@@H](Oc3c(-c4ccc(O)c(O)c4)oc4cc(O)cc(O)c4c3=O)[C@H](O)[C@@H](O)[C@@H]2O)[C@H](O)[C@H](O)[C@H]1O` [Rutin, 2-(3,4-dihydroxyphenyl)-5,7-dihydroxy-3-[α-L-rhamnopyranosyl-(1→6)-β-D-glucopyranosyloxy]-4H-chromen-4-one] was tested. Which “cell metabolism versus solvent control, in words” value [1] did it give?
Answer: lower cell metabolism than solvent control

Question: And the “PHTX Results: phototoxicity” value [1]?
Answer: not phototoxic

Question: And the “DCFH Results (intracellular antioxidant): radical activity” value [2]?
Answer: No Activity
